Source: patent publication US12448358B2, “Inhibitors of protein arginine deiminase 1 and methods of preparation and use thereof” (University of Massachusetts, priority 2019, dated 2025)

Key:
[1] = target: T1, PAD1 (Homo sapiens, UniProt Q9ULC6); assay: Inhibition of RFA labelling of PAD1 (ABPP assay); assay type: binding; conditions: PAD1 2 μM, RFA 2 μM, 37° C., 2 h
T1 construct: made in house
T1 sequence (Q9ULC6 1-663): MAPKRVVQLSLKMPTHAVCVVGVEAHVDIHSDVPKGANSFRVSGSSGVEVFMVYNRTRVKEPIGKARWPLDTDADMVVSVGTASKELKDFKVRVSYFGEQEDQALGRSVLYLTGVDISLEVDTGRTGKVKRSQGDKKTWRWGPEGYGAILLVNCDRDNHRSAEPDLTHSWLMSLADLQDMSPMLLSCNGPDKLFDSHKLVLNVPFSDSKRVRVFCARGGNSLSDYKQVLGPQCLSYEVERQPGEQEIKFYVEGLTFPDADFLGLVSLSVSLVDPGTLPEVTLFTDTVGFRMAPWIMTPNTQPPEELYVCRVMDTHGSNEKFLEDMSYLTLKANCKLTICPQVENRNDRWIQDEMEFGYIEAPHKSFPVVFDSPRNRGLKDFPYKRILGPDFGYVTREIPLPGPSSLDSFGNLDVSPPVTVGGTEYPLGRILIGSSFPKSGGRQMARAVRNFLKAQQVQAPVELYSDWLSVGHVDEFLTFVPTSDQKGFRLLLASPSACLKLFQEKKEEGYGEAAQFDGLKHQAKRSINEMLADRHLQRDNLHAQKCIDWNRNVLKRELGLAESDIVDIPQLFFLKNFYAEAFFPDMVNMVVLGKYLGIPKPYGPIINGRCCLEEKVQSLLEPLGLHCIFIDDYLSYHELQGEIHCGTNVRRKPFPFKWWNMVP
Source text: The halogen-dependent change in potency of the PAD1 inhibitors was further confirmed using an activity-based protein profiling (ABPP) assay that uses the PAD-targeted probe, rhodamine-conjugated F-amidine (RFA, FIG. 2C).
RFA enables the covalent modification and fluorescent labelling of PADs with the help of its fluoroacetamidine and rhodamine moieties, respectively. However, in the presence of a PAD inhibitor that can compete for binding to the active site, RFA labelling is inhibited. […] Similar results were obtained with the chloroacetamidine-containing compounds 2, 12, 14 and 8 (FIG. 9).
RFA labelling. RFA labelling of PAD1 in the presence of inhibitors followed a protocol similar to that established for PAD2. (Mondal, et al. ACS Chem. Biol. 2018, 13, 1057-1065.) Briefly, PAD1 (2 μM final) was added to prewarmed (10 min at 37° C.) reaction mixture (100 mM TRIS pH 7.4, 50 mM NaCl, 10 mM CaCl2, and 2 mM DTT in a final volume of 30 μL) containing RFA (2 μM final) and DMSO or various concentrations of the inhibitor. […] In-gel fluorescence of the protein bands was recorded using a typhoon scanner (excitation/emission maxima of ˜546/579, respectively) and was quantified using ImageJ software. IC50 values of the inhibitors were obtained by plotting the relative decrease in the fluorescence intensity of protein bands against the concentration of inhibitor. […]

[2] = target: T1, PAD1; assay: Limit of detection for in vitro labelling of recombinant PAD1 by probe; assay type: binding; conditions: 10 μM probe, conjugated with TAMRA-N3 using CuAAC
Protocol: Dose-dependent in vitro Labelling of Recombinant PADs with 21 and 22. A PAD (1.4 μM) was added to a prewarmed (10 min at 37° C.) reaction mixture (25 mM TRIS pH 7.4, 10 mM NaCl, and 5 mM CaCl2) containing various concentrations of 21 or 22 (or equal volume of DMSO for control). The mixture was incubated at 37° C. for 15 min. Then TAMRA-N3 (50 μM), TCEP (1 mM), TBTA (0.3 mM) and freshly prepared copper (II) sulphate (1 mM) were sequentially added to the reaction mixture and the tubes were gently tumbled at room temperature for 2 h. Then the reactions were quenched with 5×SDS-PAGE loading dye, heated at 95° C. for 15 min and loaded onto 4-15% gradient SDS-PAGE gel. Protein bands were visualized by recording in-gel fluorescence using a typhoon scanner (approximate excitation/emission maxima ˜546/579, respectively). All the experiments were performed at least in duplicate.
Limit of Detection for in vitro Labelling of Recombinant PADs with 21 and 22. Various concentrations of PAD were added to prewarmed (10 min at 37° C.) reaction mixtures (25 mM TRIS pH 7.4, 10 mM NaCl, 5 mM CaCl2) containing 10 μM of 21 or 22. […] Protein bands were visualized by recording in-gel fluorescence using a typhoon scanner (approximate excitation/emission maxima ˜546/579, respectively). […]

IC50 [1] [µM] | limit of detection (LOD) of recombinant PAD1 [2] [pmol] | SMILES
18 | – | N=C(CF)NCCC[C@H](NC(=O)c1cc(I)cc(I)c1O)c1nc2ccccc2[nH]1 [Compound 1]
– | 4.3 | C#Cc1c(I)cc(C(=O)N[C@@H](CCCNC(=N)CF)c2nc3ccccc3[nH]2)c(O)c1I [Compound 21]
